Measurements reported in patent US7741348B2, “Bisheterocycle tandem compounds useful as antiviral agents, the uses thereof and the compositions comprising such compounds” (Shanghai Institute of Materia Medica, Chinese Academy of …, priority 2005, dated 2010).
pIC50: −log10 of the molar value. Values after ≈ are worked out from the molar mass of the structure shown.

Key:
[1] = tested on: Vero (African green monkey kidney) cells; experiment: 50% toxicity concentration in the anti-herpes virus screen (Vero cells); conditions: 50% toxity concentration, Table 3-1 (herpes virus screen, Vero cells)
[2] = tested on: hepatitis B virus (HBV); experiment: HBsAg secretion in HepG2.2.15 culture supernatant (ELISA); assay type: cell-based; conditions: HepG2.2.15 supernatant, eighth day, read-out: HBsAg secreation IC50
Excerpt: (§1) Hepatitis B virus (HBV) transgenic human hepatoma carcinoma cell, HepG2.2.15 cell line, can secrete hepatitis B virus particles (containing antigen and DNA) into supernatant when being cultured.
(§2) Under action of antiviral drugs, the contents of HBsAg, HBeAg and viral DNA secreted from cells into the supernatant were detected and are compared with the contents of control groups without drugs, so that the antiviral activity of the compounds of the present invention can be measured as well as the cytotoxic effect of compounds of the present invention. The value concentration of the compounds of the present invention which caused 50% of cells dead and was measured with MTT method was CC50; and the value concentration of the compounds of the present invention which inhibited the secretion of HBsAg and HBeAg detected by ELISA method and inhibited 50% of viral DNA replication detected by fluorescent quantification PCR method was IC50.
(§3) HepG2.2.15 cells were inoculated on a 96-well plate, and the compounds of the present invention were added next day. The medium and the compound solutions of the same concentration were renewed periodically. The culture supernatants were collected on the eighth day to be detected. MTT was added to the cells on the 96-well plate, and MTT dissolving liquid was added after 4 hours to be reacted overnight. OD570 was measured next day on microplate reader. And the cytotoxicity of the compounds of the present invention to the HepG2.2.15 cells, the effect of the compounds of the present invention on the growth of the cells, and the concentration of the compound of the present invention (CC50) causing 50% of the cells dead were estimated according to the OD values.
(§4) HBsAg and HBeAg were detected with assaying kits (purchased from Sino-American biotechnological company). Samples were added to the coated strip plate, and the same amount of enzyme labeled conjugate was added, after reacting under 37° C. for 1 hour, the plate was washed 5 times. Colorant solutions A and B were added, and the reaction was stopped after 15 minutes, and OD450/630 was measured. The half inhibition rate IC50 of the sample for the HBV antigen was calculated according to the OD values.

[3] = Cytotoxicity to HepG2.2.15 cells (MTT method); assay type: cell-based; conditions: human, HepG2.2.15 cells (HBV-transgenic human hepatoma cells), 50% death concentration, eighth day
Excerpt: as §1, §2, §3

[4] = tested on: hepatitis B virus (HBV); experiment: HBV-DNA replication in HepG2.2.15 culture supernatant (fluorescent quantification PCR); assay type: cell-based; conditions: for pIC50: HepG2.2.15 supernatant, eighth day, fluorescent quantification PCR, read-out: DNA replication IC50
Excerpt: as §1, §2, §3
A suitable amount of culture supernatant was added into a same volume of virus extract solution, and was boiled after mixed uniformly, then centrifuged at 10000 rpm for 5 min under room temperature. A suitable amount of supernatant was collected for PCR amplification. Five HBV-DNA standard samples were used to set a standard curve. According to the obtained viral DNA replication value, the inhibition rates of HBV-DNA replication of the compound of the present invention at different concentrations were calculated, and then the half inhibition rates of the compounds were calculated to obtain IC50. For the samples that can not be calculated for IC50 value, they can be represented by ICX and given the corresponding concentration values.

[5] = tested on: hepatitis B virus (HBV); experiment: HBeAg secretion in HepG2.2.15 culture supernatant (ELISA); assay type: cell-based; conditions: HepG2.2.15 supernatant, eighth day, read-out: HBeAg secreation IC50
Excerpt: as §1, §2, §3, §4

[6] = tested on: MDCK (canine kidney) cells; experiment: 50% toxicity concentration in the anti-influenza screen (MDCK cells); assay type: cell-based; conditions: 50% toxity concentration, Table 3-2 (influenza screen, MDCK cells)
Excerpt: (§5) 4. Screening of the samples for the anti-influenza virus A and B activity: MDCK (canine kidney) cells were used as the virus host to test the inhibition effect of the compounds of the present invention on the cytopathic effect (CPE) of the cells caused by the virus.

[7] = tested on: influenza A virus; experiment: Anti influenza A virus activity, cytopathic effect (CPE) in MDCK cells; assay type: cell-based
Excerpt: as §5

[8] = tested on: herpes virus II (HSV-II); experiment: Anti herpes virus II activity, cytopathic effect in Vero cells; assay type: cell-based; conditions: Human alphaherpesvirus 2; Vero cells, cytopathic effect; read-out: Anti herpes virus II HSV-II (IC50)
Excerpt: 3. Screening of the compounds for the anti-herpes virus I and II activity: Vero (African green monkey kidney) cells were used as virus host to test the inhibition effect of the compounds of the present invention on the cytopathic effect of the Vero cells caused by Herpes virus I and II.

SMILES	pIC50 [2]	CC50 [3] [µM]	pIC50 [5]	TC50 [6] [µg/mL]	IC50 [7] [µg/mL]	further results
Nc1nc2c(ncn2COCCO)c(=O)[nH]1 [ACV (acyclovir), acyclovir, reference compound]	–	–	–	–	–	TC50 [1]: >1000 µg/mL
Clc1nc(-c2cccs2)[nH]c1-c1ccccc1 [Wang260]	4.15	270	3.89	–	–	DNA replication IC85 ([4]; ICX: concentration with 85% inhibition of HBV-DNA replication, IC50 not calculable): IC85 = 37 uM
Clc1nc(-c2nccs2)[nH]c1-c1ccccc1 [Wang261]	4.03	123	4.43	–	–	–
CCCc1[nH]c(-c2cccs2)nc1C(=O)OCC [Wang264]	4.38	124	4.02	–	–	–
CCCc1[nH]c(-c2nccs2)nc1C(=O)OCC [Wang265]	3.88	548	4.41	–	–	DNA replication IC44 ([4]; ICX: concentration with 44% inhibition of HBV-DNA replication, IC50 not calculable): IC44 = 4.1 uM
CC(C)Cc1sc(-c2nccs2)nc1C(=O)O [Wang268-1]	4.05	437	4.00	–	–	pIC50 ([4]; Hepatitis B virus): 3.82
CCCCc1sc(-c2nccs2)nc1C(=O)O [Wang268]	4.43	–	3.89	–	–	DNA replication IC53 ([4]; ICX: concentration with 53% inhibition of HBV-DNA replication, IC50 not calculable): IC53 = 125 uM
CCOC(=O)c1nc(-c2cccs2)[nH]c1CC(C)C [Wang278-1]	4.47	90.3	4.72	–	–	DNA replication IC88 ([4]; ICX: concentration with 88% inhibition of HBV-DNA replication, IC50 not calculable): IC88 = 1.37 uM
CCCCc1[nH]c(-c2cccs2)nc1C(=O)OCC [Wang278]	4.17	153	4.62	–	–	pIC50 ([4]; Hepatitis B virus): 5.32
CCOC(=O)c1nc(-c2nccs2)[nH]c1CC(C)C [Wang279-1]	3.85	786	3.99	–	–	DNA replication IC60 ([4]; ICX: concentration with 60% inhibition of HBV-DNA replication, IC50 not calculable): IC60 = 37 uM
COC(=O)c1nc(-c2nccs2)sc1CC(C)C [Wang282-1]	4.17	–	4.66	–	–	pIC50 ([4]; Hepatitis B virus): 5.62
CCCCc1sc(-c2nccs2)nc1C(=O)OC [Wang282]	4.23	397	4.24	–	–	pIC50 ([4]; Hepatitis B virus): 4.71
CCOC(=O)c1nc(-c2cccs2)[nH]c1-c1ccccc1 [Wang298]	3.84	569	3.68	–	–	–
O=C(O)c1nc(-c2nccs2)sc1Cc1ccccc1 [Wang302]	–	–	4.08	–	–	pIC50 ([4]; Hepatitis B virus): 4.20
COC(=O)c1nc(-c2nccs2)sc1Cc1ccccc1 [Wang316]	4.47	174	4.15	–	–	IC20 ([4]; Hepatitis B virus, HepG2.2.15): 31.3 µM
COC(=O)c1nc(-c2ncco2)sc1-c1ccc(F)cc1Cl [Wang338]	4.11	200	4.65	–	–	pIC50 ([4]; Hepatitis B virus): 5.21
COC(=O)c1nc(-c2csc([C@@H](NC(=O)c3cccs3)C(C)C)n2)oc1C [Wang405.49]	4.20	154	4.34	–	–	pIC50 ([4]; Hepatitis B virus): 4.12

SMILES	pIC50 [2]	CC50 [3] [µM]	pIC50 [5]	TC50 [6] [µg/mL]	IC50 [7] [µg/mL]	further results
COC(=O)c1nc(-c2csc([C@@H](NC(=O)c3ccccc3F)C(C)C)n2)oc1C [Wang417.46-J]	3.84	755	–	>1000	> 86.2	–
COC(=O)c1nc(-c2csc([C@@H](NC(=O)c3cccc(F)c3)C(C)C)n2)oc1C [Wang417.46-P]	–	–	–	422.43 (≈ 1010 µM)	0.9 (≈ 2.16 µM)	TC50 [1]: 198.43 µg/mL (≈ 475 µM); IC50 [8]: 107 µg/mL (≈ 255 µM)
COC(=O)c1coc([C@H](C)NC(=O)c2nc(-c3csc([C@@H](NC(=O)CC=C(C)C)C(C)C)n3)oc2C)n1 [Wang529.61-2]	–	–	–	577.35 (≈ 1090 µM)	111 (≈ 210 µM)	–
C=CCC(=O)N[C@H](c1nc(-c2nc(C(=O)OC)c(C)o2)cs1)C(C)C [Wang 363.43-2]	–	–	–	500 (≈ 1380 µM)	0.42 (≈ 1.16 µM)	–
COC(=O)c1nc(-c2csc([C@@H](NC(=O)C3CCC3)C(C)C)n2)oc1C [Wang 377.46-1]	–	–	–	500 (≈ 1320 µM)	111 (≈ 294 µM)	–
C=CCCC(=O)N[C@H](c1nc(-c2nc(C(=O)OC)c(C)o2)cs1)C(C)C [Wang 377.46-2]	–	–	–	577.35 (≈ 1530 µM)	259 (≈ 685 µM)	–
COC(=O)c1nc(-c2csc([C@@H](NC(=O)CC3=CCCC3)C(C)C)n2)oc1C [Wang 403.50]	–	–	–	333.33 (≈ 826 µM)	64.2 (≈ 159 µM)	–
COC(=O)c1nc(-c2csc([C@@H](NC(=O)CC3=CCCCC3)C(C)C)n2)oc1C [Wang 417.52]	–	–	–	231.12 (≈ 554 µM)	68.7 (≈ 165 µM)	–
C=CCC(=O)N[C@H](c1nc(-c2nc(C(=O)N[C@@H](C)c3nc(C(=O)OC)co3)c(C)o2)cs1)C(C)C [Wang 501.56-2]	–	–	–	577.35 (≈ 1150 µM)	68.7 (≈ 137 µM)	–
COC(=O)c1coc([C@H](C)NC(=O)c2nc(-c3csc([C@@H](NC(=O)c4ccccc4)C(C)C)n3)oc2C)n1 [Wang 537.59]	–	–	–	>1000	1.29 (≈ 2.4 µM)	–
COC(=O)c1coc([C@H](C)NC(=O)c2nc(-c3csc([C@@H](NC(=O)C4CCCCC4)C(C)C)n3)oc2C)n1 [Wang 543.64-1]	–	–	–	144.34 (≈ 266 µM)	57.8 (≈ 106 µM)	–
COC(=O)c1coc([C@H](C)NC(=O)c2nc(-c3csc([C@@H](NC(=O)Cc4ccccc4)C(C)C)n3)oc2C)n1 [Wang 551.62]	–	–	–	303.69 (≈ 551 µM)	1.18 (≈ 2.14 µM)	–
COC(=O)c1coc([C@H](C)NC(=O)c2nc(-c3csc([C@@H](NC(=O)CC4=CCCCC4)C(C)C)n3)oc2C)n1 [Wang 555.65]	–	–	–	577.35 (≈ 1040 µM)	44.5 (≈ 80 µM)	–
COC(=O)c1nc(-c2csc([C@@H](NC(=O)C(C)(C)C)C(C)C)n2)oc1C [Yao379.47]	–	–	–	577.35 (≈ 1520 µM)	97.8 (≈ 258 µM)	–
COC(=O)c1nc(-c2csc([C@@H](NC(=O)CCC=C(C)C)C(C)C)n2)oc1C [Yao405.51]	–	–	–	577.35 (≈ 1420 µM)	37 (≈ 91.3 µM)	–
CCC(=O)N[C@H](c1nc(-c2nc(C(=O)OC)c(C)o2)cs1)C(C)C [Yao 351.42]	–	–	–	577.35 (≈ 1640 µM)	259 (≈ 736 µM)	–
